Data reported in patent publication EP4527946A1, “METHOD FOR PREDICTING THE RESPONSE TO A DUAL S[…] KINASE TTK INHIBITOR THERAPY” (Pangaea Oncology, S.A, priority 2023, dated 2025).

Experiments:
[1] = tested on: EGFR TKI-resistant clones derived from the PC9 cell line and from 11-18 cells; experiment: Dose-response (cell viability) in EGFR TKI-resistant clones; assay type: cell-based; settings: Homo sapiens
From the text: All parental cell lines used in the study were purchased from the ATCC or other cell banks, with the exception of PC9 and 11-18. Parental PC9 cells were provided by F. Hoffman-La Roche Ltd (Basel, Switzerland) with the authorization of Dr. Mayumi Ono (Kyushu University, Fukuoka, Japan); while parental 11-18 cells were kindly provided by Dr. Mayumi Ono. Resistant cells were derived by exposing parental cells to EGFR TKIs, as described in [Bertran-Alamillo et al., (2019) AURKB as a target in non-small cell lung cancer with acquired resistance to anti-EGFR therapy. Nat Commun 10, 1812, and Jacobsen K, et al., (2017) Convergent Akt activation drives acquired EGFR inhibitor resistance in lung cancer. […] All tumor cells were grown in a humidified atmosphere with 5% CO2 at 37°C in RPMI 1640 + 10% fetal bovine serum (FBS), 50 µg/mL penicillin-streptomycin and 2 mM L-Glutamine. Cell lines were routinely tested for mycoplasma contamination and authenticated by analyzing >20 polymorphisms using a 30-gene panel NGS.
(§1) Each concentration of drug was tested in sextuplicates. […] Data were derived from at least two independent experiments. […]

PC9-ER and PC-GR4 clones = experiment: Flow cytometry (cell cycle, annexin V/PI) in clones; assay type: cell-based; settings: 50 nM
Procedure: (§2) For cell cycle analyses, cells were plated in T-25 flasks, allowed to attach, treated with drugs in RPMI 1640 + 10% FBS, trypsinised and centrifuged. Cell pellets were resuspended in PBS, fixed in 70% ethanol and incubated o/n at -20 °C. Fixed cells were subsequently re-centrifuged at 400 xg for 5 min at 4 °C; resuspended in 250 µL of PBS with 50 µg/mL RNAse A (Sigma Aldrich, Saint Louis, MO), incubated for 1 h at 37 °C and stained with propidium iodide (PI) (Roche Diagnostics, Basel, Switzerland) for 30 min at room temperature.
(§3) For cell death analyses, the Annexin-V-FLUOS (An) staining kit (Roche Diagnostics) was employed, according to the manufacturer's instructions. Stained cells were sorted with a FACSCanto II cytometer (BD Biosciences, Franklin Lakes, NJ) using the FACSDiva software version 6.1.2. The combination of Annexin V and PI was used to differentiate four cell populations; viable cells (An -/PI-), early apoptotic (An+/PI-), necrotic (An-/PI+) and later apoptotic/necrotic (An+/PI+).

NCl-H1819 cells = experiment: Flow cytometry (cell cycle, Annexin V); assay type: cell-based; settings: TTKi sensitive NCl-H1819 cells
Procedure: as §2, §3

DU-145 = experiment: Cell viability (MTT) assay; assay type: cell-based; settings: Homo sapiens, DU-145, origin Pr, Td 30 h, drug for 2-3 doubling times
Procedure: as §1

NCI-H1819 = experiment: Cell viability (MTT) assay; assay type: cell-based; settings: NCI-H1819, origin LA, Td 51 h, drug for 2-3 doubling times
Procedure: as §1

MDA-MB-468 = experiment: Cell viability (MTT) assay; assay type: cell-based; settings: Homo sapiens, MDA-MB-468, origin Breast, Td 35 h, drug for 2-3 doubling times
Procedure: as §1

NCI-H23 = experiment: Cell viability (MTT) assay; assay type: cell-based; settings: Homo sapiens, NCI-H23, origin LA, Td 38 h, drug for 2-3 doubling times
Procedure: as §1

MDA-MB-231 = experiment: Cell viability (MTT) assay; assay type: cell-based; settings: Homo sapiens, MDA-MB-231, origin Breast, Td 25 h, drug for 2-3 doubling times
Procedure: as §1

WM793 = experiment: Cell viability (MTT) assay; assay type: cell-based; settings: Homo sapiens, WM793, origin Melan., Td 48 h, drug for 2-3 doubling times
Procedure: as §1

FADU = experiment: Cell viability (MTT) assay; assay type: cell-based; settings: Homo sapiens, origin HNSCC, Td 30 h, drug for 2-3 doubling times
Procedure: as §1

T98G = experiment: Cell viability (MTT) assay; assay type: cell-based; settings: Homo sapiens, origin GB, Td 22 h, drug for 2-3 doubling times
Procedure: as §1

NCI-H1975 = experiment: Cell viability (MTT) assay; assay type: cell-based; settings: Homo sapiens, NCI-H1975, origin LA, Td 39 h, drug for 2-3 doubling times
Procedure: as §1

HCC366 = experiment: Cell viability (MTT) assay; assay type: cell-based; settings: HCC366, origin LA, Td 65 h, drug for 2-3 doubling times
Procedure: as §1

EBC-1 = experiment: Cell viability (MTT) assay; assay type: cell-based; settings: Homo sapiens, EBC-1, origin LS, Td 42 h, drug for 2-3 doubling times
Procedure: as §1

A549 = experiment: Cell viability (MTT) assay; assay type: cell-based; settings: Homo sapiens, A549, origin LA, Td 22 h, drug for 2-3 doubling times
Procedure: as §1

NCI-H2228 = experiment: Cell viability (MTT) assay; assay type: cell-based; settings: Homo sapiens, NCI-H2228, origin LA, Td 96 h, drug for 2-3 doubling times
Procedure: as §1

SK-MES-1 = experiment: Cell viability (MTT) assay; assay type: cell-based; settings: Homo sapiens, SK-MES-1, origin LS, Td 50 h, drug for 2-3 doubling times
Procedure: as §1

LC-2/ad = experiment: Cell viability (MTT) assay; assay type: cell-based; settings: Homo sapiens, origin LA, Td 58 h, drug for 2-3 doubling times
Procedure: as §1

RT-112 = experiment: Cell viability (MTT) assay; assay type: cell-based; settings: Homo sapiens, RT-112, origin UB, Td 24 h, drug for 2-3 doubling times
Procedure: as §1

SNU-C1 = experiment: Cell viability (MTT) assay; assay type: cell-based; settings: Homo sapiens, SNU-C1, origin Colon, Td 31 h, drug for 2-3 doubling times
Procedure: as §1

HCC78 = experiment: Cell viability (MTT) assay; assay type: cell-based; settings: Homo sapiens, HCC78, origin LA, Td 38 h, drug for 2-3 doubling times
Procedure: as §1

SK-OV-3 = experiment: Cell viability (MTT) assay; assay type: cell-based; settings: Homo sapiens, SK-OV-3, origin Ovarian, Td 48 h, drug for 2-3 doubling times
Procedure: as §1

NCI-H3122 = experiment: Cell viability (MTT) assay; assay type: cell-based; settings: Homo sapiens, NCI-H3122, origin LA, Td 49 h, drug for 2-3 doubling times
Procedure: as §1

MIA-PaCa-2 = experiment: Cell viability (MTT) assay; assay type: cell-based; settings: Homo sapiens, MIA-PaCa-2, origin Pancreas, Td 26 h, drug for 2-3 doubling times
Procedure: as §1

PC9-ER = experiment: cells; settings: Homo sapiens, PC-9/ER, read-out: IC50s
Procedure: as §1

SMILES: COc1ccc(Oc2cc(NCCC(F)(F)F)c3ncc(-c4ccc(C(=O)NC5CC5)c(C)c4)n3n2)c(F)c1F [BAY1217389]
- IC50 ([1]; PC-9, six clones sensitive to the TTKi): < 1 nM
- IC50 ([1]; PC-9, twelve TTKi resistant clones): > 200 nM
- effect after G2/M arrest (flow cytometry) (PC9-ER and PC-GR4 clones; resistant clones): extensive polyploidy
- effect after G2/M arrest (flow cytometry) (PC9-ER and PC-GR4 clones; sensitive clones): cell death
- cell death (Annexin V) (NCl-H1819 cells): extensive induction of cell death
- cell cycle effect (flow cytometry) (NCl-H1819 cells; 50 nM): G2/M arrest
- IC50 (DU-145): > 1000 nM
- IC50 (NCI-H1819): 2.6 ± 0.3 nM
- IC50 (MDA-MB-468): 4.1 ± 0.3 nM
- IC50 (NCI-H23): > 1000 nM
- IC50 (MDA-MB-231): > 1000 nM
- IC50 (WM793): > 1000 nM
- IC50 (FADU): > 1000 nM
- IC50 (T98G): > 1000 nM
- IC50 (NCI-H1975): > 1000 nM
- IC50 (HCC366): > 1000 nM
- IC50 (EBC-1): 4.6 ± 0.6 nM
- IC50 (A549): > 1000 nM
- IC50 (NCI-H2228): > 1000 nM
- IC50 (SK-MES-1): > 1000 nM
- IC50 (LC-2/ad): 3.6 ± 0.3 nM
- IC50 (RT-112): 3.8 ± 0.3 nM
- IC50 (SNU-C1): > 1000 nM
- IC50 (HCC78): > 1000 nM
- IC50 (SK-OV-3): > 1000 nM
- IC50 (NCI-H3122): 7.2 ± 0.5 nM
- IC50 (MIA-PaCa-2): > 1000 nM
- IC50 (PC9-ER): > 10000 nM
